# Earlier results, collected in patent US6969706B1, “Preserved pharmaceutical compositions comprising cyclodextrins” (Allergan, Inc., priority 2004, dated 2005).
# System: a number of pathogens
# Conditions: HPβCD solutions; reported by Loftsson et al. 1992
row,Compound,preservative activity in the presence of 2-hydroxypropyl-β-cyclodextrin
1,N=C(NCCCCCCNC(=N)NC(=N)Nc1ccc(Cl)cc1)NC(=N)Nc1ccc(Cl)cc1.O=C(O)[C@H](O)[C@@H](O)[C@H](O)[C@H](O)CO.O=C(O)[C@H](O)[C@@H](O)[C@H](O)[C@H](O)CO [chlorhexidine gluconate],did possess preservative activity
2,CCCOC(=O)c1ccc(O)cc1 [propylparaben],significantly reduced preservative activity
3,COC(=O)c1ccc(O)cc1 [methylparaben],significantly reduced preservative activity
4,benzalkonium chloride,did possess preservative activity
